Test system: SK-OV-3 multi-cell spheroids, viability
Assay: Anticancer human tumor SK-OV-3 cell line growth inhibition [IpAb];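 on viability, T/C: viability read after seven days of drug exposure; percent of DMSO vehicle control luminescence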
Conditions: for IC50: curve of first compound; for viability, T/C: stronger effect = lower value
Source text: Combinatorial screen of targeted agents with ipatasertib and abemaciclib in multi-cell type tumor spheroids
A high-throughput screen of multi-cell type tumor spheroids was designed to identify active combinations of targeted small molecules and ipatasertib or abemaciclib. Complex spheroids include a stromal component modeled by human endothelial cells (HUVEC) and fibroblasts modeled by human mesenchymal stem cells (MSCs). The concentration ranges selected for each drug and investigational agent were based upon clinically achievable concentrations if the clinical Cmax of the agent was known.
Compounds. The drugs and investigational agents: ipatasertib (NSC767898), abemaciclib(NSC768073), selumetinib (NSC741078), trametinib (758246), adavosertib (NSC754352), everolimus (NSC733504), sapanisertib (NSC764658), vemurafenib (NSC761431), venetoclax (NSC766270), copanlisib (NSC809693), apelisib (NSC765974), palbociblib (NSC758247), vemurafenib (NSC761431), dabrafenib (NSC764134), ravoxertinib (NSC781343), BMS-387032 (NSC767048), sotorasib (NSC818433), talazoparib (NSC767125) and afursertib (NSC778305), were obtained from the National Cancer Institute (NCI) Developmental Therapeutics Program Chemical Repository. The FDA-approved anticancer drug set is available from the NCI Developmental Therapeutics Program. […] The stock solutions were prepared in dimethyl sulfoxide (DMSO, Sigma-Aldrich, St. Louis, MO, cat. D2650) at 800-fold the tested concentration and stored at -70 degrees C prior to their use. All drugs and investigational agents were tested over a range starting from a high concentration at or near the clinical Cmax and decreasing in half-log increments. If the clinical Cmax for an agent had not been determined, the highest concentration tested was 10 microM.
NCI60 Cell Culture. NCI60 cell lines were obtained from the NCI Developmental Therapeutics Program Tumor Repository. For each lot of cells, the Repository performed Applied Biosystems AmpFLSTR Identifiler testing with PCR amplification to confirm consistency with the published Identifier STR profile for each cell line. Cells were kept in continuous culture for no more than 20 passages. The optimal seeding densities for each of the cell lines at each time point assessed were determined prior to performing the concentration response studies. Briefly, the NCI60 human tumor lines were grown as monolayers in RPMI 1640 medium supplemented with 10% FBS and 2 mmol/L L-glutamine.
An additional 9 lines were from the NCI60 cell line panel including MDA-MB-231 breast carcinoma, MDA-MB-468 breast carcinoma, MCF7 breast carcinoma, Hs578T breast carcinoma, MALME-3M melanoma, SK-MEL-2 melanoma, SK-OV-3 ovarian carcinoma, DU-145 prostate carcinoma, PC-3 prostate carcinoma, all cell lines along with major genetic alterations are listed on Table 2. Pooled donor human umbilical vein endothelial cells (HUVEC, Lonza, cat. CC-2519) and human mesenchymal stem cells (hMSC, Lonza, cat. PT-2501) were purchased from Lonza (Walkersville, MD).
PDMR cell lines were grown in complete medium (DC medium): Dulbecco's modified Eagle's medium (DMEM)/F12 supplemented with 5% fetal bovine serum (FBS), 2 mM L-glutamine, 100 U/mL penicillin and 100 µg/ml streptomycin, 0.4 µg/ml hydrocortisone, 10 ng/ml epidermal growth factor (EGF) recombinant human protein, 24 µg/mL adenine, and 0.1 mg/mL primocin. During culture from frozen stock vials, PDMR cells were cultured in the same medium containing 10 µM Y-27632 (see Table 3). The PDCs were cultured in complete DMEM/F12 media without 10 microM Y-27632 dihydrochloride for at least two passages prior to the screen. The pooled donor HUVEC and hMSC were cultured in endothelial cell growth medium 2 (PromoCell, Heidelberg, Germany, cat. C-22011) and mesenchymal stem cell growth medium 2 (PromoCell, cat. C-28009), respectively. For all experiments, HUVEC and hMSC were used at passages </=5.
[…]

[1] = second compound 0.01 µM, first compound 0.0316 µM
[2] = second compound 0.01 µM, first compound 0.1 µM
[3] = second compound 0.01 µM, first compound 0.316 µM
[4] = second compound 0.01 µM, first compound 1 µM
[5] = second compound 0.01 µM, first compound 3.16 µM
[6] = second compound 0.01 µM, first compound 10 µM
[7] = second compound 0.0316 µM, first compound 0.0316 µM
[8] = second compound 0.0316 µM, first compound 0.1 µM
[9] = second compound 0.0316 µM, first compound 0.316 µM
[10] = second compound 0.0316 µM, first compound 1 µM
[11] = second compound 0.0316 µM, first compound 3.16 µM
[12] = second compound 0.0316 µM, first compound 10 µM
[13] = second compound 0.1 µM, first compound 0.0316 µM
[14] = second compound 0.1 µM, first compound 0.1 µM
[15] = second compound 0.1 µM, first compound 0.316 µM
[16] = second compound 0.1 µM, first compound 1 µM
[17] = second compound 0.1 µM, first compound 3.16 µM
[18] = second compound 0.1 µM, first compound 10 µM
[19] = second compound 0.316 µM, first compound 0.0316 µM
[20] = second compound 0.316 µM, first compound 0.1 µM
[21] = second compound 0.316 µM, first compound 0.316 µM
[22] = second compound 0.316 µM, first compound 1 µM
[23] = second compound 0.316 µM, first compound 3.16 µM
[24] = second compound 0.316 µM, first compound 10 µM
[25] = second compound 1 µM, first compound 0.0316 µM
[26] = second compound 1 µM, first compound 0.1 µM
[27] = second compound 1 µM, first compound 0.316 µM
[28] = second compound 1 µM, first compound 1 µM
[29] = second compound 1 µM, first compound 3.16 µM
[30] = second compound 1 µM, first compound 10 µM

SMILES | IC50 (second compound 0.01 µM) [nM] | IC50 (second compound 0.0316 µM) [nM] | IC50 (second compound 0.1 µM) [nM] | IC50 (second compound 0.316 µM) [nM] | IC50 (second compound 1 µM) [nM] | viability, T/C [1] [%] | viability, T/C [2] [%] | viability, T/C [3] [%] | viability, T/C [13] [%] | viability, T/C [14] [%] | viability, T/C [15] [%] | viability, T/C [16] [%] | viability, T/C [19] [%] | viability, T/C [20] [%] | viability, T/C [21] [%] | viability, T/C [22] [%] | viability, T/C [25] [%] | viability, T/C [26] [%] | viability, T/C [27] [%] | viability, T/C [28] [%] | other results
C=CC(=O)N1CCN(c2nc(=O)n(-c3c(C)ccnc3C(C)C)c3nc(-c4c(O)cccc4F)c(F)cc23)C(C)C1 (stereo not given) + CCN1CCN(Cc2ccc(Nc3ncc(F)c(-c4cc(F)c5nc(C)n(C(C)C)c5c4)n3)nc2)CC1 | > 10000 | > 10000 | > 10000 | > 10000 | > 10000 | 89.9 | 99.2 | 93.8 | 58.8 | 66.5 | 65.5 | 69 | 53.7 | 59 | 61.8 | 61 | 47 | 53.3 | 53.7 | 55.5 | viability, T/C [4]: 107%; viability, T/C [5]: 96.5%; viability, T/C [6]: 61.7%; viability, T/C [7]: 74.4%; viability, T/C [8]: 82.8%; viability, T/C [9]: 79%; viability, T/C [10]: 81.8%; viability, T/C [11]: 85.4%; viability, T/C [12]: 53.8%; viability, T/C [17]: 73.2%; viability, T/C [18]: 47.1%; viability, T/C [23]: 62.8%; viability, T/C [24]: 48%; viability, T/C [29]: 57.5%; viability, T/C [30]: 46.9%
Cn1ncc(Cl)c1-c1cc(C(=O)NC(CN)Cc2cccc(F)c2)sc1Cl (stereo not given) + CCN1CCN(Cc2ccc(Nc3ncc(F)c(-c4cc(F)c5nc(C)n(C(C)C)c5c4)n3)nc2)CC1 | 66 | 34.7 | < 31.6 | < 31.6 | < 31.6 | 66.5 | 41 | 22.1 | 42.7 | 26.7 | 18.1 | 12.9 | 43.3 | 29.8 | 20 | 15.1 | 36.3 | 34.7 | 24.4 | 17.8 | viability, T/C [4]: 14.1%; viability, T/C [5]: 6.99%; viability, T/C [6]: 0.34%; viability, T/C [7]: 52.8%; viability, T/C [8]: 30.6%; viability, T/C [9]: 22.3%; viability, T/C [10]: 13.8%; viability, T/C [11]: 7.67%; viability, T/C [12]: 0.51%; viability, T/C [17]: 7.38%; viability, T/C [18]: 0.3%; viability, T/C [23]: 8.84%; viability, T/C [24]: 0.17%; viability, T/C [29]: 12.2%; viability, T/C [30]: 0.39%
COc1c(OCCCN2CCOCC2)ccc2c3n(c(=NC(=O)c4cnc(N)nc4)nc12)CCN3 + CC(C)NCC(C(=O)N1CCN(c2ncnc3c2C(C)CC3O)CC1)c1ccc(Cl)cc1 |  |  | 3.82 | < 3.16 | < 3.16 |  |  |  | 12.1 | 6.59 | 5.28 | 3.75 | 9.72 | 7.09 | 5.47 | 3.33 | 8.59 | 6.92 | 4.3 | 2.76 | IC50 (second compound 3.16 µM): < 3.16 nM; IC50 (second compound 10 µM): < 3.16 nM; viability, T/C (second compound 0.1 µM, first compound 0.00316 µM): 53.7%; viability, T/C (second compound 0.1 µM, first compound 0.01 µM): 31.3%; viability, T/C (second compound 0.316 µM, first compound 0.00316 µM): 29.5%; viability, T/C (second compound 0.316 µM, first compound 0.01 µM): 18.4%; viability, T/C (second compound 1 µM, first compound 0.00316 µM): 17.3%; viability, T/C (second compound 1 µM, first compound 0.01 µM): 11%; viability, T/C (second compound 3.16 µM, first compound 0.00316 µM): 12.3%; viability, T/C (second compound 3.16 µM, first compound 0.01 µM): 9.35%; viability, T/C (second compound 3.16 µM, first compound 0.0316 µM): 8.55%; viability, T/C (second compound 3.16 µM, first compound 0.1 µM): 6.85%; viability, T/C (second compound 3.16 µM, first compound 0.316 µM): 4.48%; viability, T/C (second compound 3.16 µM, first compound 1 µM): 2.41%; viability, T/C (second compound 10 µM, first compound 0.00316 µM): 6.56%; viability, T/C (second compound 10 µM, first compound 0.01 µM): 5.87%; viability, T/C (second compound 10 µM, first compound 0.0316 µM): 5.36%; viability, T/C (second compound 10 µM, first compound 0.1 µM): 4.04%; viability, T/C (second compound 10 µM, first compound 0.316 µM): 2.89%; viability, T/C (second compound 10 µM, first compound 1 µM): 1.6%

— PubChem BioAssay AID2060325 (Molecular Pharmacology Branch, DTP, NCI, 2025)
